Positions of bridges follow the written chain, without caps; N, C: chain ends. Residues, ends and D or L forms follow the SMILES beside them.
Experiments:
IGFBP-3 [1] = biological target: T1, IGFBP-3 (Homo sapiens, UniProt P17936); assay: BIACORE kinetics: IGFBP-3 binding to immobilized IGF-1 variants; conditions: 25 C
T1 construct: made in house
Protocol: (§1) The binding affinities of the IGF variants for IGFBP-1 and IGFBP-3 were determined using a BIACORE™-2000 real time kinetic interaction analysis system (Biacore, Inc., Piscataway, N.J.) to measure association (ka) and dissociation (kd) rates. Carboxymethylated dextran biosensor chips (CM5, BIAcore Inc.) were activated with EDC (N-ethyl-N′-(3-dimethylaminopropyl)-carbodiimide hydrochloride) and NHS(N-hydroxysuccinimide) according to the supplier's instructions. For immobilization, IGF mutants in 20 mM sodium acetate, pH 4.8, were injected onto the biosensor chip at a concentration of 50 μg/ml to yield approximately 450-600 RU's (resonance-responce units) of covalently-coupled protein. Unreacted groups were blocked with an injection of 1 M ethanolamine. Kinetic measurements were carried out by injecting two-fold serial dilutions (starting at 1 μM) of either IGFBP-1 or IGFBP-3 in running buffer (PBS, 0.05% TWEEN 20™, 0.1% ovalbumin, 0.1% sodium azide) at 25 °C using a flow rate of 20 μl/min. Association rates (ka) and dissociation rates (kd) were calculated separately using a 1:1 Langmuir™ association model in the BIACORE™ evaluation software v. 3.0. The equilibrium dissociation constant (KD) was calculated as kd/ka.

type I IGF receptor = biological target: T2, type I IGF receptor (Homo sapiens, UniProt P08069); assay: KIRA assay of IGF type I receptor activation; type: cell-based; conditions: about 13 nM or […] variant
T2 construct: monitors the extent of cytoplasmic IGF receptor phosphorylation upon extracellular stimulation by ligand; endogenous in cells; MCF-7 by my knowledge of the cited method
Excerpt: The Kinase Receptor Activation Assay (KIRA) specifically and quantitatively monitors the extent of cytoplasmic IGF receptor phosphorylation upon extracellular stimulation by ligand (Sadick et al., J. Pharm. Biomed. Analysis, 19 (6): 883-891 (1999)).

IGFBP-1 [2] = assay: BIACORE kinetics: IGFBP-1 binding to immobilized IGF-1 variants; set-up: species or system human; conditions: from relative KD values
Protocol: as §1
(§2) For measurements of IGFBP-1 binding to IGF-1, kinetics experiments were conducted using a single-cysteine IGF-1 variant, Y31C, that was immobilized onto the sensor chip surface via a disulfide linkage (BIACORE™ System Manual Supplement, 5a-1, Pharmacia (1991)).

IGFBP-1 [3] = biological target: T3, IGFBP-1 (Homo sapiens, UniProt P08833); assay: as above; set-up: made in house; host or cells: CHO cells; conditions: 25 C
T3 sequence (P08833 26-259): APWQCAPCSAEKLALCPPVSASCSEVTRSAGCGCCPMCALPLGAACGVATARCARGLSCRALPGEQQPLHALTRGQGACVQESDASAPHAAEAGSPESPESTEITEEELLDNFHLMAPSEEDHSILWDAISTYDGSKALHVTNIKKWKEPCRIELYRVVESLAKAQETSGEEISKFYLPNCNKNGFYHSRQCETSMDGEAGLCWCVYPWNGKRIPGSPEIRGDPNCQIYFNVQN
Protocol: as §1, §2

IGFBP-3 [4] = biological target: T1, IGFBP-3; assay: competitive phage ELISA of IGF-1 mutants, IGFBP-3; type: binding; conditions: phage display, soluble IGFBP-3 competitor
Procedure, shortened: (§3)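 Alanine-scan IGF-1 mutants on phage competed with soluble IGFBP-1 or IGFBP-3 (threefold dilutions over six logs, from 5 μM and 500 nM respectively) for binding to plates coated with 1 μg/ml of the same protein in PBS pH 7.2. Incubation was 1 h at room temperature in 0.5% Tween 20/PBS. Bound phage was detected by anti-phage/HRP ELISA; IC50 is the mean±SD of at least two clones.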

IGFBP-1 [5] = assay: competitive phage ELISA of IGF-1 mutants, IGFBP-1; type: binding, human; conditions: relative IC50 IGFBP-1/relative IC50 IGFBP-3
Procedure, shortened: as §3

IGFBP-1 [6] = biological target: T3, IGFBP-1; assay: competitive phage ELISA of IGF-1 mutants, IGFBP-1; type: binding; set-up: made in house; host or cells: CHO cells; conditions: phage display, soluble IGFBP-1 competitor
Procedure, shortened: as §3

[7] = test system: human articular cartilage explants; assay: human articular cartilage explants: matrix breakdown (proteoglycan release); type: cell-based; conditions: peptide 0.1 mg/ml
Protocol: (§4) The metacarpophalangeal joint of a six-month old pig was cultured as described above for bovine articular cartilage in Example 8. This explant was cultured in media alone or in media with D12K, D12R, or wild-type IGF-1 (at 10 nM) alone or in the presence of IL-1α at 1 ng/ml, as described above. Human explants were from patients undergoing joint replacement surgery. Articular cartilage was harvested, aliquoted (40-45 mg/tube) and cultured as above. […] Fresh media was added on days 0, 1, 2, and 3. Matrix breakdown was determined by measuring the amount of proteoglycans in the media using the DMMB assay as set forth above. Matrix (proteoglycan) synthesis was determined by measuring ^35S-sulfate uptake as set forth above.
(§5) Human articular cartilage explants were cultured in media or treated with IGF-1 by itself or in combination with either BP3-40 or BP3-15 at 0.1 mg/ml as set forth above. Matrix breakdown was determined by measuring the release of proteoglycans into media as described above. Matrix synthesis was determined by counting the amount of ^35S-sulfate incorporated into the cartilage tissue as described above.

[8] = test system: human articular cartilage explants; assay: human articular cartilage explants from diseased joints: matrix synthesis (35S-sulfate uptake); type: cell-based; conditions: for matrix synthesis in diseased human articular cartilage: 40 ng/ml
Protocol: as §4, §5
The same Material and Methods (for human tissue) were used as described above, using articular cartilage explants from human joints removed from patients undergoing joint replacement. These explants were cultured with IGF-1 alone at 40 ng/ml, or IGF-1 with BP1-17, BP3-15, or BP1-16 (0.1 mg/ml), or IGF-1 with buffer (HEPES).

IGFBP-3 [9] = biological target: T1, IGFBP-3; assay: radiolabeled IGF-1 plate assay, IGFBP-3 plate; type: binding
Protocol: (§6) As an additional assay of peptide activity, several peptides were tested in an assay using ^125I-labeled IGF-1 to measure inhibition of IGFBP binding, as described above (Assay 3). Serial dilutions of peptide were added to an IGFBP-1 or an IGFBP-3 plate. Thereafter, ^125I-labeled IGF-1 was added and the plates were incubated for 2 hours. The plates were then washed and counted to determine the amount of bound IGF-1.

IGFBP-1 [10] = biological target: T3, IGFBP-1; assay: radiolabeled IGF-1 plate assay, IGFBP-1 plate; type: binding; set-up: made in house; host or cells: CHO cells
Protocol: as §6

IGFBP-3 [11] = biological target: T1, IGFBP-3; assay: BIACORE competition assay: IGFBP-3 binding to immobilized IGF-1
Protocol: IGF-1 was immobilized on a dextran chip for inhibition assays using a BIACORE™ 2000 surface-plasmon-resonance device (BIAcore, Inc., Piscataway, N.J.) to measure free binding protein. IGF-1 was biotinylated as described above, and injected over a chip to which streptavidin had been coupled (BIAcore, Inc.) to give 400 to 800 RU (response units) of immobilized IGF-1. […] Serial dilutions of peptide were mixed with a constant concentration (40 nM) of IGFBP-3. After incubation for >1 hour at room temperature, an aliquot of 20 μL was injected at a flow rate of 20 μL/min over the IGF-1 chip. Following the injection, a response reading was taken to measure the relative amount of IGFBP-3 bound to the IGF-1.

IGFBP-3 [12] = biological target: T1, IGFBP-3; assay: binding curves of phage displaying IGF-1 variants on immobilized IGFBP-1 or IGFBP-3
Excerpt: Phage particles displaying IGF-1 variants in which the aspartate residue at position 12 was mutated to lysine (D12K) or arginine (D12R) were constructed as described in Dubaquié and Lowman, supra. Furthermore, these protein variants were expressed in E. coli and purified as described in Dubaquié and Lowman, supra.
The wild-type IGF-1 phage particles bound to IGFBP-1 or IGFBP-3 generated similar detection signal intensities.

[13] = test system: porcine articular cartilage explants; assay: porcine articular cartilage explants: matrix breakdown; type: cell-based, pig; conditions: 10 nM; for IL-1α-induced matrix breakdown: IL-1α 1 ng/ml
Protocol: as §4

[14] = test system: porcine articular cartilage explants; assay: porcine articular cartilage explants: matrix synthesis; type: cell-based, pig; conditions: 10 nM; for IL-1α-induced inhibition of proteoglycan synthesis: IL-1α 1 ng/ml
Protocol: as §4

T1 sequence (P17936 28-291): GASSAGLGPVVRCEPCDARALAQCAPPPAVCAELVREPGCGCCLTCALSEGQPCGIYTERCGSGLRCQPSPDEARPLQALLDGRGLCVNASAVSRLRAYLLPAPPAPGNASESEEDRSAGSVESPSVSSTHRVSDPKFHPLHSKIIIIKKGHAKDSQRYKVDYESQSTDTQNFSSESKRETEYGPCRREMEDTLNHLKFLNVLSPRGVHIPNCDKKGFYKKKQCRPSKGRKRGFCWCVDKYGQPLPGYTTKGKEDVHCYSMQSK
T2 sequence (P08069 31-736 limits assumed): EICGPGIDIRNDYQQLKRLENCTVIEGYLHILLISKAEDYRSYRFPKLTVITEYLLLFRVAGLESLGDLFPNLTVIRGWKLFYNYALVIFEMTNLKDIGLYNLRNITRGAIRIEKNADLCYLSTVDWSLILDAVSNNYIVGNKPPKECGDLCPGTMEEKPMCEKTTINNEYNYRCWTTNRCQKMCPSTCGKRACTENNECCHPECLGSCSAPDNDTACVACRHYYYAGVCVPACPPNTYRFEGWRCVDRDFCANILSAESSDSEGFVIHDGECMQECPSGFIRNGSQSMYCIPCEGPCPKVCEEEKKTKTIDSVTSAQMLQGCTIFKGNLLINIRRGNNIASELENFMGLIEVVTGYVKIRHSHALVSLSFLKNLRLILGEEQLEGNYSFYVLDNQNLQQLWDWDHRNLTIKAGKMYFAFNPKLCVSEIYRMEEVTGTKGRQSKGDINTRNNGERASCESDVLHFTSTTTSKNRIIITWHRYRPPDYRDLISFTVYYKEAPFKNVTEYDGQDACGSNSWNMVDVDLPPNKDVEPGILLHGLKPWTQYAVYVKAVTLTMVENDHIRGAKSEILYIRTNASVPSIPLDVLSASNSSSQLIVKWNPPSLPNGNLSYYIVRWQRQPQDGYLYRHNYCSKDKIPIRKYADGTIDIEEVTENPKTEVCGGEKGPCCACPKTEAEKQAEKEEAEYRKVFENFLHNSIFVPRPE

F16A: IGF-1 single alanine mutant
Binding to IGFBP-3 ka (IGFBP-3 [1]): 1.1 ± 0.4 ×10^5 M^−1s^−1
IGF type I receptor activation, single-concentration KIRA (type I IGF receptor): retain biological activity
Specificity Relative BP-1 / Relative BP-3 (IGFBP-1 [2]): 3.6
Binding to IGFBP-1 ka (IGFBP-1 [3]): 1.9 ± 0.6 ×10^4 M^−1s^−1
IC50 (IGFBP-3 [4]): 1.32 ± 0.25 nM
relative specificity (IGFBP-1 [5]): 4.0
IC50 (IGFBP-1 [6]): 57.8 ± 20.1 nM

CC(=O)N[C@@H](CO)C(=O)N[C@@H](CCC(=O)O)C(=O)N[C@@H](CCC(=O)O)C(=O)N[C@H](C(=O)N[C@H]1CSSC[C@@H](C(=O)N[C@@H](CC(N)=O)C(N)=O)NC(=O)[C@H](CC(C)C)NC(=O)[C@H](Cc2ccc(O)cc2)NC(=O)[C@H](Cc2c[nH]c3ccccc23)NC(=O)[C@H](CCC(=O)O)NC(=O)[C@H](C)NC(=O)[C@H](C(C)C)NC(=O)[C@@H]2CCCN2C(=O)[C@H](Cc2c[nH]c3ccccc23)NC1=O)C(C)C [BP3-40] (Ac-SEEVCWPVAEWYLCN-NH2; disulfide 5-14)
matrix breakdown, IGF-1 in combination with peptide [7]: appeared to enhance the ability of IGF-1 to decrease matrix breakdown
matrix synthesis, IGF-1 in combination with peptide ([8]; IGF-1 40 ng/ml, peptide 0.1 mg/ml): to stimulate matrix synthesis

CSCC[C@H](NC(=O)[C@H](CC(N)=O)NC(=O)[C@@H]1CSSC[C@H](NC(=O)[C@@H](NC(=O)[C@H](CCC(=O)O)NC(=O)[C@H](CCC(=O)O)NC(=O)[C@@H](N)CO)C(C)C)C(=O)N[C@@H](Cc2c[nH]c3ccccc23)C(=O)N2CCC[C@H]2C(=O)N[C@@H](C(C)C)C(=O)N[C@@H](C)C(=O)N[C@@H](CCC(=O)O)C(=O)N[C@@H](Cc2c[nH]c3ccccc23)C(=O)N[C@@H](Cc2ccc(O)cc2)C(=O)N[C@@H](CC(C)C)C(=O)N1)C(=O)N[C@@H](Cc1c[nH]c2ccccc12)C(=O)NCC(=O)O [BP3-01-ox] (H-SEEVCWPVAEWYLCNMWG-OH; disulfide 5-14; N-terminus and C-terminus assumed)
inhibition of 125I-IGF-1 binding to an IGFBP-3 plate (IGFBP-3 [9]): inhibition
inhibition of 125I-IGF-1 binding to an IGFBP-1 coated plate (IGFBP-1 [10]): did not inhibit IGF-1 binding to an IGFBP-1 coated plate
IC50 (IGFBP-3 [11]): 2000 nM

D12R: IGF-1 variant, aspartate at position 12 mutated to arginine
phage binding signal intensity, IGFBP-3 versus IGFBP-1 (IGFBP-3 [12]): displayed lower signal intensities when binding to IGFBP-3 compared to IGFBP-1
matrix synthesis in diseased human articular cartilage [8]: stimulated matrix synthesis in diseased human articular cartilage
cartilage matrix breakdown [13]: inhibited cartilage matrix breakdown
IL-1α-induced matrix breakdown [13]: inhibited the catabolic effects
matrix synthesis [14]: increased matrix synthesis
IL-1α-induced inhibition of proteoglycan synthesis [14]: prevented IL-1α-induced inhibition of proteoglycan synthesis

CSCC[C@@H]1NC(=O)[C@H](Cc2c[nH]c3ccccc23)NC(=O)[C@@H]2CCCN2C(=O)CNC(=O)[C@H](CC(=O)O)NC(=O)[C@H](C)NC(=O)[C@@H](NC(=O)[C@@H](NC(=O)CNC(=O)[C@H](CCSC)NC(=O)[C@@H](N)CC(=O)O)C(C)C)CSSC[C@@H](C(=O)N[C@@H](CCC(=O)O)C(=O)N[C@@H](Cc2c[nH]c3ccccc23)C(=O)N[C@H](C(=O)N[C@@H](CCC(=O)O)C(=O)O)[C@@H](C)O)NC(=O)[C@H](C(C)C)NC(=O)[C@H](Cc2ccc(O)cc2)NC1=O [BP3-02-ox] (H-DMGVCADGPWMYVCEWTE-OH; disulfide 5-14; N-terminus and C-terminus assumed)
inhibition of 125I-IGF-1 binding to an IGFBP-3 plate (IGFBP-3 [9]): inhibition
inhibition of 125I-IGF-1 binding to an IGFBP-1 coated plate (IGFBP-1 [10]): did not inhibit IGF-1 binding to an IGFBP-1 coated plate

F25A: IGF-1 single alanine mutant
Binding to IGFBP-3 ka (IGFBP-3 [1]): 1.5 ± 0.5 ×10^5 M^−1s^−1
IGF type I receptor activation, single-concentration KIRA (type I IGF receptor): retain biological activity
Specificity Relative BP-1 / Relative BP-3 (IGFBP-1 [2]): 4.9
Binding to IGFBP-1 ka (IGFBP-1 [3]): 1.5 ± 0.5 ×10^4 M^−1s^−1
IC50 (IGFBP-3 [4]): 3.69 ± 0.25 nM
IC50 (IGFBP-1 [6]): 181 ± 46 nM

D12K: IGF-1 variant, aspartate at position 12 mutated to lysine
phage binding signal intensity, IGFBP-3 versus IGFBP-1 (IGFBP-3 [12]): displayed lower signal intensities when binding to IGFBP-3 compared to IGFBP-1
matrix synthesis in diseased human articular cartilage [8]: stimulated matrix synthesis in diseased human articular cartilage
cartilage matrix breakdown [13]: inhibited cartilage matrix breakdown
IL-1α-induced matrix breakdown [13]: inhibited the catabolic effects
matrix synthesis [14]: increased matrix synthesis
IL-1α-induced inhibition of proteoglycan synthesis [14]: prevented IL-1α-induced inhibition of proteoglycan synthesis
